What was measured:
[1] = system: SCD-1, FAS and ELOVL6 expression in liver; test: Liver lipogenic gene expression after 6-hour lipid infusion; type: in vivo; conditions: 6-hour infusion, compared to vehicle-infused mice
Source text: FIG. 5A-5E reflects the regulation of SCD-1 promoter activity in vivo. […] PUF: polyunsaturated fatty acid response element. FIG. 5B is the regulation of WT and mutant SCD-1 promoter activities by fatty acids. AA: arachidonic acid. FIG. 5C is the regulation of wild-type and mutant SCD-1 promoter activities by plasma lipids. Plasma lipids extracted from WT or FABP^−/− (DK) mice were used to treat FAO cells Infected with WT or mutant SCD-1 promoter-carrying adenoviruses and luciferase assays performed as described in the Examples. FIG. 5D presents the in vivo regulation of wild-type and mutant SCD-1 promoter activities. Luciferase assays were performed on liver tissues of WT or DK mice injected with WT or mutant SCD-1 reporter carrying adenoviruses. FIG. 5E is liver gene expression in mice infused with vehicle, TG:palmitate or TG:palmitoleate. *, p<0.05. […] INTRALIPID® fatty acid lipid infusion solution with 2 mM triglycerides:palmitate or palmitoleate were prepared using a previously described protocol with modifications (Stein et al., 1997). Briefly, lipids were dissolved in a solvent containing 5% glycerol and 0.72% phosphocholine in 0.9% saline, heated at 80° C. for 10 min, and then sonicated 1 min four times. For TG:palmitoleate, the heating was omitted to avoid oxidization of the lipids. Lipids stay in suspension for a week, so to prevent clogging the preparations must be vortexed well before loading the syringe and tubing. Seven days before lipid infusion, mice were anesthetized and an indwelling catheter inserted in the left internal jugular vein, then the animals were left to recover the following days. After overnight fasting, lipids were infused at a rate of 500 μl/kg/min for six hours. At the end of the infusion, insulin (1 U/Kg) was injected into mice via the infusion tubing and tissues were collected for subsequent gene expression and immunoblotting analyses. To determine serum FFA level during lipid infusion, blood was collected from mouse tails at different time intervals and spun down to collect plasma. Serum FFAs were determined using a commercial kit (Wako Chem.). TG:palmitate and TG:palmitoleate are difficult to dissolve at a concentration that are compatible with the infusion rate of hyperinsulinemic-euglycemic clamp study and yet maintain efficient delivery of these lipids. Therefore fatty acid: palmitoleate was used to infuse mice for clamp study. Palmitoleate was dissolved in saline containing 2% BSA (vehicle) at 15 mM with repeated sonications and was infused through the tubing at a rate of 3.3 μl/min for two hours. A standard hyperinsulinemic-euglycernic clamp was then performed as previously described (Furuhashi et al., 2007). Vehicle or palmitoleate solution was used to dissolve tracer ^3H-glucose and so lipid was also infused at 3.3 μl/min throughout the 4-hour period of clamp study.

[2] = system: insulin receptor, IRS-1, IRS-2 and AKT phosphorylation in liver; test: Insulin signaling in liver of lipid-infused mice (immunoblotting); type: in vivo; conditions: TG lipid infusion, compared to vehicle controls
Source text: (§1) FIGS. 7A-7G show data on the regulation of insulin signaling and glucose metabolism by palmitoleate. FIG. 7A is the basal and insulin-stimulated phosphorylation of insulin receptor (IR), insulin receptor substrate-1 (IRS-1) and -2 (IRS-2) and AKT in liver of mice infused with vehicle (Veh), TG:palmitoleate (C16:1n7) or TG:palmitate (C16). Representative blots are shown and quantifications on the right are averaged results of three mice in each treatment group. […] Representative blots are shown and quantifications on the right are averaged results of three mice in each treatment group.
(§2) The left panel presents the insulin-stimulated phosphorylation of insulin receptor and AKT in liver of mice infused with vehicle or palmitoleate. […] Mice were infused with vehicle or palmitoleate at 3.3 μl/min for six hrs, and insulin (1 U/Kg) was injected through the infusing tubing. Three minutes after insulin injection, tissues were collected and immunoblotting analyses were performed.
(§3) The present invention also provides for the regulation of insulin action by increased circulating palmitoleate. To study whether palmitoleate regulates systemic metabolic responses, lipid infusions were administered in conscious mice. Lipid infusion has been used widely to investigate the relationship between plasma FFAs and insulin resistance, but almost all studies using this protocol utilized preparations of natural lipid products containing a variety of fatty acids. Kim et al., 114 J. Clin. Invest. 823-27 (2004); Kim et al., 277 J. Biol. Chem. 32915-22 (2002); Yu et al., 277 J. Biol. Chem. 50230-36 (2002). […]
(§4) Samples of 200 μl serum were collected using heparin-coated glass tubes and spun at 13,000 g in a microcentrifuge to separate the plasma. […] Tissue protein lysates was separated with SDS-PAGE gels and phosphorylated or total proteins were detected with the following antibodies: phospho AKT Serine 473, AKT, insulin receptor, phospho-tyrosine (Santa Cruz Biotech.); IRS-1 and IRS-2 (Upstate); phospho-GSK and GSK (Cell Signaling Tech.); phospho-insulin receptor from (Calbiocbem). […]

aP2 = target: T1, aP2 (Mus musculus, UniProt P04117); test: Lipogenic gene expression in adipose tissue of mice treated with aP2 inhibitor; type: in vivo; conditions: WT mice on HFD, oral gavage 40 mg/kg/day for two months
T1 construct: from tissue; host or cells: epididymal fat pads of mice on high-fat diet (in vivo oral dosing)
T1 sequence (P04117 1-132): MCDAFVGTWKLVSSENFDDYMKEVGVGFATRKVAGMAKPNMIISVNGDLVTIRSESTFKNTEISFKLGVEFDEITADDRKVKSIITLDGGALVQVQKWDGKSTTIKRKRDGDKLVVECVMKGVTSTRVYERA
Description: FIGS. 6A-6D present data related to the regulation of lipogenic genes in adipose and liver of WT and FABP^−/− mice. […] Gene expression patterns in epididymal fat pad were determined by quantitative real-time PCR. FIG. 6B is regulation of lipogenic gene promoter activities by FABPs in differentiated adipocytes. […] Gene expressions in epididymal fat pads from mice treated with vehicle or aP2 inhibitor were determined with quantitative real-time PCR. […] relates to the differential regulation of lipogenic gene expression in adipose and liver tissues. Levels of the mRNAs in liver and epididymal fat pad from mice fed with high-fat diet were determined with quantitative real-time PCR. ACC1, acetyl-CoA carboxylase1; FAS, fatty acid synthase; SCD-1, stearoyl-CoA desaturase; ELOVL6, fatty acid elongase 6; DGAT1, acyl-CoA:diacylglycerol acyltransferase 1. *, p<0.05.
To directly address this, adipogenic cell lines from FABP−/−mice were differentiated them into adipocytes (FIG. 19). […] This observation agrees with that observed in adipose tissue of FABP-deficient mice. This pattern was tested in vivo in an alternative experimental system where aP2 function in mice is blocked through an orally administrated synthetic inhibitor. […] Furuhashi et al., 2007. […]

SCD-1 promoter = test: SCD-1 promoter-driven luciferase reporter in FAO hepatoma cells; type: cell-based, murine; conditions: hepatocytes (FAO) treated with a single fatty acid, 300 μM
Description: This possibility was tested using several highly sensitive assays to probe the functional profile and activities of plasma lipids. SCD-1 was chosen as a target because it was determined previously that the suppression of hepatic SCD-1 activity is a major alteration in FABP-deficient mice under diet-induced or genetic obesity. Cao et al., 2006; Maeda et al., 2005. Hepatic SCD-1 expression is regulated by a variety of hormones and nutritional factors such as insulin, glucose, and polyunsaturated fatty acids (PUFAs). Ntambi & Miyazaki, 43 Prog. Lipid Res. 91-104 (2004). […] Chu et al., 26 Mol. Cell Biol. 6786-98 (2006); Ntambi, 40 J. Lipid Res. 1549-58 (1999). The 1.5 kb murine SCD-1 promoter was placed in front of a luciferase reporter and inserted into an adenovirus construct. FAO rat hepatoma cells infected with this adenovirus verified the responsiveness of this reporter to PUFA, consistent with previous observations (FIG. 15). Because this assay system was adapted to a microplate format, very small amounts of lipids were required for experimentation. This system allowed direct testing for the effects of lipids extracted from plasma of WT and FABP-deficient animals.
Lipids were extracted from whole plasma and applied to liver cells expressing the SCD-1 promoter reporter gene. […] To control for any difference in the amount of lipids extracted from plasma and to mimic the in vivo regulation of SCD-1 expression, mixtures of FFAs were generated with the same molar ratio detected in WT or FABP-deficient plasma lipids using the major fatty acids listed in FIG. 2C. […]
as §4

[3] = system: insulin receptor signaling in muscle tissue; test: Insulin signaling in muscle of lipid-infused mice (immunoblotting); type: in vivo; conditions: TG lipid infusion
Source text: as §1, §2, §3, §4

Compound | SCD-1 expression in liver [1] | fatty acid elongase 6 (ELOVL6) expression in liver [1] | fatty acid synthase (FAS) expression in liver [1] | proximal insulin-signaling pathway in liver (insulin receptor, IRS-1, IRS-2, AKT) [2] | insulin receptor signaling in muscle [3] | other results
CCCCCC/C=C\CCCCCCCC(=O)OCC(COC(=O)CCCCCCC/C=C\CCCCCC)OC(=O)CCCCCCC/C=C\CCCCCC [TG-palmitoleate] | substantial decrease | substantial decrease | substantial decrease | strongly potentiated |  | 
CCc1c(-c2ccccc2)c(-c2ccccc2)nn1-c1ccccc1-c1cccc(OCC(=O)O)c1 [aP2 inhibitor] |  |  |  |  |  | lipogenic gene expression in adipose tissues (aP2): increased
CCCCC/C=C\C/C=C\C/C=C\C/C=C\CCCC(=O)O [arachidonic acid, reference compound] |  |  |  |  |  | SCD-1 promoter-driven reporter activity (SCD-1 promoter): suppressed
CCCCCCCCCCCCCCCC(=O)O [palmitate, reference compound] |  |  |  |  | impaired | 
CCCCCCCCCCCCCCCC(=O)OCC(COC(=O)CCCCCCCCCCCCCCC)OC(=O)CCCCCCCCCCCCCCC [TG-palmitate, reference compound] | increase | increase | increase | suppressed |  | 
C16:1n7-palmitoleate |  |  |  |  | enhanced | 

— US9239334B2, “Fatty acid C16: 1N7-palmitoleate a lipokine and biomarker for metabolic status” (PRESIDENT AND FELLOWS OF HARVARD COLLEGE, priority 2008, dated 2016)
